Test system: collagen 1 (COL1)
Assay: WI-38 collagen 1 inhibition assay
Assay type: cell-based, human
Details: Cellular EC50, WI-38 cells; values are classes of LogEC50
Source text: All compounds were profiled for cellular potency in inhibition of collagen 1 (COL1) protein translation using a phenotypic screening platform.
WI-38 cells (ATCC® CCL-75™) were maintained in MEM EAGLE (NEAA) W. GLUTAMIN (Biological Industries, Cat. 06-1040-15-1A) containing 10% fetal bovine serum (FBS) and 1% Penicillin-Streptomycin Solution. To synchronize the cells (cell cycle synchronization) prior to induction of collagen synthesis, the cells were starved using DMEM-low glucose supplemented with 0.25% FBS for two hours and then without FBS for 24 hours. To induce collagen synthesis, the cells were treated with a collagen induction cocktail for the indicated time. Compounds were added with induction.
Cells in 96-well or 384-well plates were fixed for 20 min in 4% paraformaldehyde (PFA, ENCO, Cat. sc-281692). Following two washes with 1×PBS, cells were treated with hydrogen peroxide (Acros, Cat: 7722-84-1) for 10 minutes and then washed twice with 1×PBS. Cells were then incubated over-night at 4° C. with Anti-Collagen I (Sigma-Aldrich, Cat: C 2456) antibody and washed three times with 1×PBS. Cells were then incubated with a suitable secondary fluorescently-tagged antibody and nuclei stained with DAPI, for 1 hour, and then washed 3 times with 1×PBS.
Cell images were taken with Operetta (Perkin Elmer, USA), a wide-field fluorescence microscope at 20× magnification. After acquisition, the images were transferred to Columbus software (Perkin-Elmer) for image analysis. In Columbus, cells were identified by their nucleus, using the “Find Nuceli” module and cytoplasm was detected based on the secondary antibody channel. Subsequently, the fluorescent signal was enumerated in the identified cell region. Data was exported to a data analysis and visualization software, Tibco Spotfire, USA.

Compound: CN1CCC[C@@H](C(=O)N2CCN(c3ccc(C(=O)Nc4nc(-c5ccccc5Cl)cs4)nc3)CC2)C1 [Compound 485, (R)—N-(4-(2-chlorophenyl)thiazol-2-yl)-5-(4-(1-methylpiperidine-3-carbonyl)piperazin-1-yl)picolinamide]
- COL1 Efficacy (LogEC50): +++ (+++: <−6)

Compound: CN1CCC[C@H](C(=O)N2CCN(c3ccc(C(=O)Nc4nc(-c5ccccc5Cl)cs4)nc3)CC2)C1 [Compound 486, (S)—N-(4-(2-chlorophenyl)thiazol-2-yl)-5-(4-(1-methylpiperidine-3-carbonyl)piperazin-1-yl)picolinamide]
- COL1 Efficacy (LogEC50): +++ (+++: <−6)

Compound: O=C(Nc1nc(-c2ccccc2Cl)cs1)c1ccc(Br)cc1 [compound 310]
- COL1 Efficacy (LogEC50): +++ (+++: <−6)

Compound: O=C(Nc1nc(-c2cc(Cl)sc2Cl)cs1)c1ccc(Cl)cc1 [compound 311]
- COL1 Efficacy (LogEC50): ++ (++: −5 to −6)

Compound: O=C(Nc1nc(-c2cc(Cl)sc2Cl)cs1)c1ccccc1 [compound 312]
- COL1 Efficacy (LogEC50): ++ (++: −5 to −6)

Compound: Cc1ccc(C(=O)Nc2nc(-c3cc(Cl)sc3Cl)cs2)cc1 [compound 313]
- COL1 Efficacy (LogEC50): +++ (+++: <−6)

Compound: CC(C)=CC(=O)Nc1nc(-c2cc(Cl)sc2Cl)cs1 [compound 314]
- COL1 Efficacy (LogEC50): ++ (++: −5 to −6)

Compound: Cc1ccc(C(=O)Nc2nc(-c3ccccc3Cl)cs2)cn1 [compound 318, N-[4-(2-chlorophenyl)thiazol-2-yl]-6-methyl-pyridine-3-carboxamide]
- COL1 Efficacy (LogEC50): +++ (+++: <−6)

Compound: Cc1ncc(C(=O)Nc2nc(-c3ccccc3Cl)cs2)cn1 [compound 320, N-[4-(2-chlorophenyl)thiazol-2-yl]-2-methyl-pyrimidine-5-carboxamide]
- COL1 Efficacy (LogEC50): ++ (++: −5 to −6)

Compound: CN1CCN(c2ccc(C(=O)Nc3nc(-c4ccccc4Cl)cs3)cc2)CC1 [compound 322, N-[4-(2-chlorophenyl)thiazol-2-yl]-4-(4-methylpiperazin-1-yl)benzamide]
- COL1 Efficacy (LogEC50): +++ (+++: <−6)

Compound: CN1CCC(C(=O)Nc2nc(-c3ccccc3Cl)cs2)CC1 [compound 324, N-[4-(2-chlorophenyl)thiazol-2-yl]-1-methyl-piperidine-4-carboxamide]
- COL1 Efficacy (LogEC50): ++ (++: −5 to −6)

Compound: Cc1ccc(C(=O)Nc2nc(-c3ccccc3Cl)cs2)nc1 [compound 329, N-[4-(2-chlorophenyl)thiazol-2-yl]-5-methyl-pyridine-2-carboxamide]
- COL1 Efficacy (LogEC50): ++ (++: −5 to −6)

Compound: COc1cnc(C(=O)Nc2nc(-c3ccccc3Cl)cs2)cn1 [compound 330, N-[4-(2-chlorophenyl)thiazol-2-yl]-5-methoxy-pyrazine-2-carboxamide]
- COL1 Efficacy (LogEC50): ++ (++: −5 to −6)

Compound: O=C(Nc1nc(-c2ccccc2Cl)cs1)c1ccc(N2CCOCC2)cn1 [compound 339, N-[4-(2-chlorophenyl)thiazol-2-yl]-5-morpholino-pyridine-2-carboxamide]
- COL1 Efficacy (LogEC50): +++ (+++: <−6)

Compound: COc1ncc(C(=O)Nc2nc(-c3ccccc3Cl)cs2)cn1 [compound 345, N-[4-(2-chlorophenyl)thiazol-2-yl]-2-methoxy-pyrimidine-5-carboxamide]
- COL1 Efficacy (LogEC50): +++ (+++: <−6)

Compound: O=C(Nc1nc(-c2ccccc2Cl)cs1)c1ccc(N2CCOCC2)nc1 [compound 346, N-[4-(2-chlorophenyl)thiazol-2-yl]-6-morpholino-pyridine-3-carboxamide]
- COL1 Efficacy (LogEC50): +++ (+++: <−6)

Compound: Cc1ccc(C(=O)Nc2nc(-c3cnccc3C)cs2)cn1 [compound 348, 6-methyl-N-[4-(4-methyl-3-pyridyl)thiazol-2-yl]pyridine-3-carboxamide]
- COL1 Efficacy (LogEC50): + (+: >−5)

Compound: COc1ncc(C(=O)Nc2nc(-c3cnccc3C)cs2)cn1 [compound 349, 2-methoxy-N-[4-(4-methyl-3-pyridyl)thiazol-2-yl]pyrimidine-5-carboxamide]
- COL1 Efficacy (LogEC50): − (−: inactive)

Compound: Cc1ccc(C(=O)Nc2nc(-c3ccccc3N3CCC3)cs2)cn1 [compound 350, N-[4-[2-(azetidin-1-yl)phenyl]thiazol-2-yl]-6-methyl-pyridine-3-carboxamide]
- COL1 Efficacy (LogEC50): − (−: inactive)

Compound: COc1ccccc1-c1csc(NC(=O)c2ccc(N3CCOCC3)cc2)n1 [compound 351, N-[4-(2-methoxyphenyl)thiazol-2-yl]-4-morpholino-benzamide]
- COL1 Efficacy (LogEC50): +++ (+++: <−6)

Compound: O=C(Nc1nc(-c2cccnc2)cs1)c1ccc(N2CCOCC2)cc1 [compound 352, 4-morpholino-N-[4-(3-pyridyl)thiazol-2-yl]benzamide]
- COL1 Efficacy (LogEC50): + (+: >−5)

Compound: COc1cc(OC)cc(-c2csc(NC(=O)c3ccc(N4CCOCC4)cc3)n2)c1 [compound 353, N-[4-(3,5-dimethoxyphenyl)thiazol-2-yl]-4-morpholino-benzamide]
- COL1 Efficacy (LogEC50): +++ (+++: <−6)

Compound: Cn1cc(-c2csc(NC(=O)c3ccc(N4CCOCC4)cc3)n2)cn1 [compound 354, N-[4-(1-methylpyrazol-4-yl)thiazol-2-yl]-4-morpholino-benzamide]
- COL1 Efficacy (LogEC50): ++ (++: −5 to −6)

Compound: COc1ncc(C(=O)Nc2nc(-c3cccnc3C)cs2)cn1 [compound 355, 2-methoxy-N-[4-(2-methyl-3-pyridyl)thiazol-2-yl]pyrimidine-5-carboxamide]
- COL1 Efficacy (LogEC50): − (−: inactive)

Compound: COc1ncc(C(=O)Nc2nc(-c3cccnc3OC)cs2)cn1 [compound 356, 2-methoxy-N-[4-(2-methoxy-3-pyridyl)thiazol-2-yl]pyrimidine-5-carboxamide]
- COL1 Efficacy (LogEC50): − (−: inactive)

Compound: COc1cccc(-c2csc(NC(=O)c3ccc(N4CCOCC4)cc3)n2)c1 [compound 357, N-[4-(3-methoxyphenyl)thiazol-2-yl]-4-morpholino-benzamide]
- COL1 Efficacy (LogEC50): + (+: >−5)

Compound: O=C(Nc1nc(-c2ccccc2Cl)cs1)c1cnc(N2CCOCC2)nc1 [compound 358, N-[4-(2-chlorophenyl)thiazol-2-yl]-2-morpholino-pyrimidine-5-carboxamide]
- COL1 Efficacy (LogEC50): − (−: inactive)

Compound: O=C(Nc1nc(-c2ccccc2)cs1)c1ccc(N2CCOCC2)cc1 [compound 359, 4-morpholino-N-(4-phenylthiazol-2-yl)benzamide]
- COL1 Efficacy (LogEC50): + (+: >−5)

Compound: O=C(Nc1nc(-c2ccccc2Cl)cs1)N1CCC(N2CCOCC2)CC1 [compound 360, N-[4-(2-chlorophenyl)thiazol-2-yl]-4-morpholino-piperidine-1-carboxamide]
- COL1 Efficacy (LogEC50): + (+: >−5)

Compound: N#Cc1ccccc1-c1csc(NC(=O)c2ccc(N3CCOCC3)cc2)n1 [compound 361, N-[4-(2-cyanophenyl)thiazol-2-yl]-4-morpholino-benzamide]
- COL1 Efficacy (LogEC50): − (−: inactive)

Compound: O=C(Nc1nc(-c2ccccc2Cl)cs1)C1CN(C2CCOCC2)C1 [compound 363, N-[4-(2-chlorophenyl)thiazol-2-yl]-1-tetrahydropyran-4-yl-azetidine-3-carboxamide]
- COL1 Efficacy (LogEC50): ++ (++: −5 to −6)

Compound: CS(=O)(=O)N1CCN(c2ccc(C(=O)Nc3nc(-c4ccccc4Cl)cs3)cc2)CC1 [compound 365, N-[4-(2-chlorophenyl)thiazol-2-yl]-4-(4-methylsulfonylpiperazin-1-yl)benzamide]
- COL1 Efficacy (LogEC50): +++ (+++: <−6)

Compound: O=C(Nc1nc(-c2ccccc2Cl)cs1)c1ccc(N2CCOCC2)nn1 [compound 366, N-[4-(2-chlorophenyl)thiazol-2-yl]-6-morpholino-pyridazine-3-carboxamide]
- COL1 Efficacy (LogEC50): +++ (+++: <−6)

Compound: O=C(Nc1nc(-c2ccccc2Cl)cs1)c1cnc(N2CCOCC2)cn1 [compound 367, N-[4-(2-chlorophenyl)thiazol-2-yl]-5-morpholino-pyrazine-2-carboxamide]
- COL1 Efficacy (LogEC50): +++ (+++: <−6)

Compound: Cc1ncccc1-c1csc(NC(=O)c2ccc(N3CCOCC3)cc2)n1 [compound 369, N-[4-(2-methyl-3-pyridyl)thiazol-2-yl]-4-morpholino-benzamide]
- COL1 Efficacy (LogEC50): ++ (++: −5 to −6)

Compound: Cc1ncccc1-c1csc(NC(=O)c2ccc(N3CCOCC3)cn2)n1 [compound 371, N-[4-(2-methyl-3-pyridyl)thiazol-2-yl]-5-morpholino-pyridine-2-carboxamide]
- COL1 Efficacy (LogEC50): ++ (++: −5 to −6)

Compound: Cc1ncccc1-c1csc(NC(=O)c2cnc(N3CCOCC3)cn2)n1 [compound 372, N-[4-(2-methyl-3-pyridyl)thiazol-2-yl]-5-morpholino-pyrazine-2-carboxamide]
- COL1 Efficacy (LogEC50): + (+: >−5)

Compound: Cc1ncccc1-c1csc(NC(=O)c2ccc(N3CCOCC3)nn2)n1 [compound 373, N-[4-(2-methyl-3-pyridyl)thiazol-2-yl]-6-morpholino-pyridazine-3-carboxamide]
- COL1 Efficacy (LogEC50): + (+: >−5)

Compound: Cc1ncccc1-c1csc(NC(=O)c2cnc(N3CCOCC3)nc2)n1 [compound 374, N-[4-(2-methyl-3-pyridyl)thiazol-2-yl]-2-morpholino-pyrimidine-5-carboxamide]
- COL1 Efficacy (LogEC50): + (+: >−5)

Compound: Cc1ncccc1-c1csc(NC(=O)c2ccc(N3CCOCC3)nc2)n1 [compound 375, N-[4-(2-methyl-3-pyridyl)thiazol-2-yl]-6-morpholino-pyridine-3-carboxamide]
- COL1 Efficacy (LogEC50): + (+: >−5)
